Test results: article PMC11148078, “Potent activity of polymyxin B is associated with long-lived super-stoichiometric accumulation mediated by weak-affinity binding to lipid A” (Nature Communications, 2024)
Bridge positions count the residues as written; N and C are the ends. Square brackets hold non-standard residues; d marks the D form. Peptide text beside a SMILES is read from it. * marks the point of attachment. X1 = CC[C@H](C)CCCCC(=O)*; Dab = NCC[C@H](N)C(=O)O

Assays:
[1] = test system: polymyxin B-resistant E. coli cells expressing mcr-1; experiment: Whole cell SPR, E. coli expressing mcr-1; assay type: binding
Procedure: (§1) Bacterial strains were grown in LB or LB with 0.2% arabinose and carbenicillin (50 μg/mL) to log phase (OD600 approximately 0.4–0.6), centrifuged for 10 min at 2500 × g (3500 rpm using a tabletop centrifuge), and re-suspended in PBS to a final OD600 of approximately 5. SPR on whole bacterial cells was performed and analyzed as described for OMVs on C1 chip, but with an additional carry-over wash prior to the capture. Regeneration of the chip after whole cell binding also required additional steps ([…] flow rate): (1) PBS supplemented with 32 mM MgCl2 for 120 s, (2) 2.5 M NaCl for 30 s, (3) 0.5% SDS (Desorb 1, Cytiva) for 60 s with carry over controls between.

[2] = test system: polymyxin B-resistant E. coli PmrA^G53E cells; experiment: Whole cell SPR, E. coli PmrA^G53E; assay type: binding
Procedure: as §1

wt-OMVs = experiment: Three-state model fit to SPR titration, wt-OMVs; assay type: binding, E. coli
Source text: To estimate binding constants, the three-state model was fit to binding curve titrations (Fig. 5A, B, and Table 2). Briefly, the SPR response curves of polymyxin B binding wt-OMVs (Fig. 5A) or resistant OMVs (Fig. 5B) were globally fit to Eqn. (1) by non-linear regression coupled to numerical integration of the associated ordinary differential equations (see Supplementary Information Section 2A), which define the time-dependent concentrations of each species.1 Response(t)=([PMBL]t+[nPMBL]t+2*[tPMB]t+m.[cPMB]t).MW.G.
Section 2A - Formulation of three-state model for fitting SPR data
The three-state model (Fig. 4) was formulated as a set of coupled ordinary differential equations (ODEs), with eight binding rate constants (k1-8) governing the rates of interchange of each species.
Forward rate constants k7 and k9 were eliminated from the equation set as formation of transient species tPMB and LL are irreversible.
Time at Injection 1 start = 0 s
Sample contact time = 30 s
Dissociation time interval = 35 s
Mass transport rate = kt = 46.5 1/s
Initial Species Concentrations
Coupled ODEs of Three-State Model d[L]/dt = -(k1.[PMB].[L] - k2.[PMBL])+2*k10.[LL] (S8) d[PMB]/dt = -(k1.[PMB].[L] - k2.[PMBL]) + kt’.([PMBi](t) –[PMB]) (S9) d[PMBL]/dt = (k1.[PMB]*[L] - k2.[PMBL])-(k3.[PMBL].[n] - k4.[nPMBL] ) (S10) d[n]/dt = -(k3.[PMBL].[n] - k4.[nPMBL] ) (S11) d[nPMBL]/dt = (k3.[PMBL].[n] - k4.[nPMBL])-2.(k5.[nPMBL].[nPMBL] - k6.[tPMB].[LL] ) (S12) d[tPMB]/dt = (k5.[nPMBL].[nPMBL] - k6.[tPMB].[LL] ) – k8.[tPMB] (S13) d[cPMB]/dt = 2*k8.[tPMB] (S14) d[LL]/dt = (k5.[nPMBL].[nPMBL] – k6.[tPMB].[LL]) – k10.[LL] (S15)
The initial concentrations of each species were as follows
[PMB]t=0 = [PMBL]t=0 = [nPMBL]t=0 = [tPMB]t=0 = [LL]t=0 = [cPMB]t=0 = 0 [L]t=0 = [n]t=0 = 1.56 x 10-4 (units, M) kt’ (units, m/s) was already defined in SI Section 1A. [PMBi](t) is the injected concentration profile and [PMB]t is the concentration profile at the sensing surface. [PMBi](t) follows a serial-doubling concentration of injected analyte, with a concentration profile defined by a serial step function, where each injection step represents a discrete concentration followed by a dissociation step without injected analyte and this is repeated for each concentration in the SCK dosing series.
Kintek Explorer V9.5 was used to build and fit the three-state model. This program employs its own numerical integrator9, which reports the change in concentration of each species over time.
The SPR responses for concentrations of each accumulating PMB-species estimated from Eqn (8 - 15) are summed over time in Eqn (1), repeated here.
Response(t) = ([PMBL]t+[nPMBL]t+2*[tPMB]t+m.[cPMB]t).MW.G. Eqn (1)
The concentration of [tPMB]t is multiplied by two to account for its additional mass, being composed of two PMB molecules. Insertion of PMB into the acyl-LPS matrix to form cPMB is associated with changes in the phase state of LPS10 and is also likely associated with redistribution of mass towards the sensing surface11. These changes will manifest as an increase in sensitivity of the SPR binding response when clusters are formed and are included in Eqn (1) […]
using a sensitivity coefficient (m). MW is the molecular weight of the injected analyte, in this case PMB (1203.48 Da). The constant, G, is a unit conversion factor that converts protein concentration (g/L) to response (RU) and is typically 100 (units, RU.L/g). […]

[3] = test system: E. coli cells, OMVs, and LPS; experiment: SPR apparent association rate averaged over cells, OMVs and LPS; assay type: binding; conditions: averaged for cells
Procedure: OMV-coated and whole cell-coated C1 chips were prepared as already described with the following changes and LPS-coated surfaces were prepared identically but with rough-LPS extracted from E. coli F583 (Rd mutant, Sigma #L6893). For LPS, cloudy colloid suspension (above its CMC, ~1 mg/ml) contains LPS micelles that were injected and captured. For all formats, sample buffer and running buffer were composed of Dulbecco’s phosphate-buffered salt solution containing 0.0005% tween-80 (Sigma), 1 mM calcium and 0.5 mM magnesium (Fisher Scientific), pH 7.4. Analysis and compartment temperatures were both set to 37 °C. Freshly prepared OMV-coated or whole cell-coated sensing surfaces were employed for each injection of polymyxin B while LPS-coated sensing surfaces could be fully regenerated by injecting 50 mM CHAPS. Reversibly bound PMBN could be reinjected over all surfaces without requiring regeneration as it fully dissociated within a few minutes.
Fresh sensing surfaces coated with whole cells and OMVs were prepared and 325 nM polymyxin B was injected at […] for 120 s over both. This injection was repeated after a long delay, and without regeneration, in order to allow free sites to become available thereby resulting in two polymyxin B binding curves for each sensing surface (Fig. 3E, F). […]

Question: `CC[C@H](C)CCCCC(=O)N[C@@H](CCN)C(=O)N[C@H](C(=O)N[C@@H](CCN)C(=O)N[C@H]1CCNC(=O)[C@H]([C@@H](C)O)NC(=O)[C@H](CCN)NC(=O)[C@H](CCN)NC(=O)[C@H](CC(C)C)NC(=O)[C@@H](Cc2ccccc2)NC(=O)[C@H](CCN)NC1=O)[C@@H](C)O` [Polymyxin B] (X1-[Dab]T[Dab][Dab][Dab][dF]L[Dab][Dab]T; lactam 4-C (inferred); N-terminus assumed) was tested. Which “SPR binding profile” value [1] did it give?
Answer: same polymyxin B binding profiles were observed

Question: And the “SPR binding profile” value [2]?
Answer: same polymyxin B binding profiles were observed

Question: And the k5 (wt-OMVs; dimerization of nPMBL, global fit, max 625 nM)?
Answer: 20.75 M⁻¹ s⁻¹

Question: And the k3 (wt-OMVs; membrane insertion / nPMBL formation, global fit, max 625 nM)?
Answer: 2233 M⁻¹ s⁻¹

Question: What about the k4 (wt-OMVs; nPMBL dissociation, global fit, max 625 nM) of the same molecule?
Answer: 0.00488 s⁻¹

Question: And the “relative fraction of transition state” value (wt-OMVs; peer review file)?
Answer: < 0.1%

Question: And the “residence time = 1/k4” value (wt-OMVs; stability of nucleates (nPMBL))?
Answer: 205 s

Question: What about the “ka, apparent association rate constant” value [3] of the same molecule?
Answer: 2.1 (±0.78) × 10^5 M^−1 s^−1
